These are literature values, as cited in US7232821B2, “(2-((2-alkoxy)-phenyl) -cyclopent-1enyl) aromatic carbo and heterocyclic acid and derivatives” (Glaxo Group Limited, priority 2002, dated 2007).

Data set [1] relates to rodent model of post-operative pain.
The test system of data set [2] is rat model of chronic constriction injury.

On to `Cc1cc(Cl)ccc1S(=O)(=O)NC[C@H]1C2CCC(CC2)[C@@H]1/C=C\CCCC(=O)O` [ONO-8711], for which the mechanical hyperalgesia result in data set [1] was “inhibits mechanical hyperalgesia”. Besides, in data set [2], the hyperalgesia and allodynia result was “reduces hyperalgesia and allodynia”.
